# Assay results taken from patent US20210300936A1, “PYRAZOLOTRIAZOLOPYRIMIDINE DERIVATIVES AS A2A RECEPTOR ANTAGONIST” (BEIGENE, LTD., priority 2018, published 2021).
# Target: human A2A receptor (A2AR) (Homo sapiens, UniProt P29274)
# Assay: Luciferase reporter assay (HEK293-A2AR-luc2p/CRE/Hygro cells, 3 nM CGS21680)
# Assay type: cell-based
# Details: 3 nM CGS21680, 5 h incubation
# Experimental: HEK293 cells were maintained in Dulbecco's modified Eagle's medium (DMEM, Gibco) supplemented with 10% fetal bovine serum (FBS, Thermo Scientific), 100 units/mL penicillin (Gibco), and 0.1 mg/mL streptomycin (Gibco) in a humidified 37° C. environment with 5% C02. Plasmid encoding wild-type human A2A receptor (A2AR) (in pcDNA3.1) was synthesized by Genscript (Nanjing, China). Transfection of the plasmids was performed in 6-well plates with 4×10^5 cells using Lipofectamin 2000 (ThermoFisher Scientific) according to the instruction of the manufacturer. Cell clones that stably express A2AR were established and maintained in the same complete medium as the HEK293 cells in addition of G-418 (Gibico). Expression level of A2AR in each single cell clone was determined using immunoblotting and FACS method. HEK293-A2AR stable cells were then transfected with pGL4.29[luc2P/CRE/Hygro] (Promega) luciferase reporter plasmid for establishing the HEK293-A2AR-luc2p/CRE/Hygro stable cell line.
# HEK293-A2AR-luc2p/CRE/Hygro cells were seeded at a density of 5,000 cells/well in DMEM with 1% FBS and 1 U/mL adenosine deaminase (ADA) (Sigma). After 18 h, the cells were treated with 3 nM CGS21680 plus a series dilution of A2AR antagonist, the compounds disclosed herein at the concentration of 0.1˜10000 nM, prepared in DMEM with 1% FBS. After 5 h incubation, the luciferase activity in cells were measured using the Bright-Glo Luciferase Assay System (Promega) according to manufacturer's instructions. The luminescence signal was measured using a PHERAstar FS plate reader (BMG Labtech). […] Maximal luminescence intensity was determined in the presence of 3 nM CGS21680 and was set as 100%. The IC50 value was calculated from a dose dependent inhibition curve across the range of compound concentrations.
# Chain of human A2A receptor (A2AR) (P29274 whole entry): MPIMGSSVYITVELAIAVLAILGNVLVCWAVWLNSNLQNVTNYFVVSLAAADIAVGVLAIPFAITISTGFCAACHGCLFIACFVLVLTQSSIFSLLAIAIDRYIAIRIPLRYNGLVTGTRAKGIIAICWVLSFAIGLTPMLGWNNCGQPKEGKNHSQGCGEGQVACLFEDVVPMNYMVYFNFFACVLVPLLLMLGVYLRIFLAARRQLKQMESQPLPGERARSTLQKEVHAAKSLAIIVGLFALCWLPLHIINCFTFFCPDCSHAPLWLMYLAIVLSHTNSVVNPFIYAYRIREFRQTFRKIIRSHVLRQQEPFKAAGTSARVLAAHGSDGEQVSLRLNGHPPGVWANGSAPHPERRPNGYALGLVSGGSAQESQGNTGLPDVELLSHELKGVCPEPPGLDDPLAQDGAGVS
row,IC50,Structure (SMILES)
1,18.4 nM,"COCCOc1ccc(N2CC(C)N(C(=O)C(c3ccccc3)n3ncc4c3nc(N)n3nc(-c5ccco5)nc43)C(C)C2)cc1 (stereo not drawn) [Compound A59, 2-(5-amino-2-(furan-2-yl)-7H-pyrazolo[4,3-e][1,2,4]triazolo[1,5-c]pyrimidin-7-yl)-1-(4-(4-(2-methoxyethoxy)phenyl)-2,6-dimethylpiperazin-1-yl)-2-phenylethan-1-one]"
2,15.4 nM,"CC(C(=O)N1CC2(CCOCC2)C1)(c1ccccc1)n1ncc2c1nc(N)n1nc(-c3ccco3)nc21 (stereo not drawn) [Compound B26, 2-(5-amino-2-(furan-2-yl)-7H-pyrazolo[4,3-e][1,2,4]triazolo[1,5-c]pyrimidin-7-yl)-2-phenyl-1-(7-oxa-2-azaspiro[3.5]nonan-2-yl)propan-1-one]"
3,3.8 nM,"CC(C(=O)N1CCN(c2ccccc2C(=O)NC2CCCCC2)CC1)(c1ccccc1)n1ncc2c1nc(N)n1nc(-c3ccco3)nc21 (stereo not drawn) [Compound A94, 2-(4-(2-(5-amino-2-(furan-2-yl)-7H-pyrazolo[4,3-e][1,2,4]triazolo[1,5-c]pyrimidin-7-yl)-2-phenylpropanoyl)piperazin-1-yl)-N-cyclohexylbenzamide]"
4,6.8 nM,"COCCOc1ccc(N2CCN(C(=O)C(C)(c3cccc(F)c3)n3ncc4c3nc(N)n3nc(-c5ccco5)nc43)CC2)cc1 (stereo not drawn) [Compound A86, 2-(5-amino-2-(furan-2-yl)-7H-pyrazolo[4,3-e][1,2,4]triazolo[1,5-c]pyrimidin-7-yl)-2-(3-fluorophenyl)-1-(4-(4-(2-methoxyethoxy)phenyl)piperazin-1-yl)propan-1-one]"
5,39.4 nM,"COCCOCCOc1ccc(N2CCN(C(=O)C(COC)n3ncc4c3nc(N)n3nc(-c5ccco5)nc43)CC2)cc1 (stereo not drawn) [Compound A27, 2-(5-amino-2-(furan-2-yl)-7H-pyrazolo[4,3-e][1,2,4]triazolo[1,5-c]pyrimidin-7-yl)-3-methoxy-1-(4-(4-(2-(2-methoxyethoxy)ethoxy)phenyl)piperazin-1-yl)propan-1-one]"
6,1.1 nM,"COCCOCCOc1ccc(N2CCN(C(=O)C(CC(C)C)n3ncc4c3nc(N)n3nc(-c5ccco5)nc43)CC2)cc1 (stereo not drawn) [Compound A17, 2-(5-amino-2-(furan-2-yl)-7H-pyrazolo[4,3-e][1,2,4]triazolo[1,5-c]pyrimidin-7-yl)-1-(4-(4-(2-(2-methoxyethoxy)ethoxy)phenyl)piperazin-1-yl)-4-methylpentan-1-one]"
7,4.4 nM,"CCCC(C(=O)N1CCN(c2ccc(OCCOC)cc2F)CC1)n1ncc2c1nc(N)n1nc(-c3ccco3)nc21 (stereo not drawn) [Compound A24, 2-(5-amino-2-(furan-2-yl)-7H-pyrazolo[4,3-e][1,2,4]triazolo[1,5-c]pyrimidin-7-yl)-1-(4-(2-fluoro-4-(2-methoxyethoxy)phenyl)piperazin-1-yl)pentan-1-one]"
8,1.6 nM,"Nc1nc2c(cnn2C(C(=O)N2CCN(c3ccc(F)cc3F)CC2)c2ccccc2)c2nc(-c3ccco3)nn12 (stereo not drawn) [Compound A48, 2-(5-amino-2-(furan-2-yl)-7H-pyrazolo[4,3-e][1,2,4]triazolo[1,5-c]pyrimidin-7-yl)-1-(4-(2,4-difluorophenyl)piperazin-1-yl)-2-phenylethan-1-one]"
9,2070 nM,"COCCOc1ccc(N2CCN(C(=O)C(Cc3ccccc3)n3cc4c(nc(N)n5nc(-c6ccco6)nc45)n3)CC2)cc1 (stereo not drawn) [Compound C20, 2-(5-amino-2-(furan-2-yl)-8H-pyrazolo[4,3-e][1,2,4]triazolo[1,5-c]pyrimidin-8-yl)-1-(4-(4-(2-methoxyethoxy)phenyl)piperazin-1-yl)-3-phenylpropan-1-one]"
10,9.5 nM,"CCCC(C(=O)N1CCN(c2ccc(OCCOCCOC)cc2)CC1)n1ncc2c1nc(N)n1nc(-c3ccco3)nc21 (stereo not drawn) [Compound A6, 2-(5-amino-2-(furan-2-yl)-7H-pyrazolo[4,3-e][1,2,4]triazolo[1,5-c]pyrimidin-7-yl)-1-(4-(4-(2-(2-methoxyethoxy)ethoxy)phenyl)piperazin-1-yl)pentan-1-one]"
11,648 nM,"COCCOc1ccc(N2CCN(C(=O)C(C(C)C)n3cc4c(nc(N)n5nc(-c6ccco6)nc45)n3)CC2)cc1 (stereo not drawn) [Compound C2, 2-(5-amino-2-(furan-2-yl)-8H-pyrazolo[4,3-e][1,2,4]triazolo[1,5-c]pyrimidin-8-yl)-1-(4-(4-(2-methoxyethoxy)phenyl)piperazin-1-yl)-3-methylbutan-1-one]"
12,121 nM,"CCCCC(C(=O)N1CCN(c2ccc(OCCOCCOC)cc2)CC1)n1ncc2c1nc(N)n1nc(-c3ccco3)nc21 (single isomer, unassigned) [Compound A11b]"
13,17 nM,"COCCOCCOc1ccc(N2CCN(C(=O)C(c3ccccc3)n3cc4c(nc(N)n5nc(-c6ccco6)nc45)n3)CC2)cc1 (stereo not drawn) [Compound C15, 2-(5-amino-2-(furan-2-yl)-8H-pyrazolo[4,3-e][1,2,4]triazolo[1,5-c]pyrimidin-8-yl)-1-(4-(4-(2-(2-methoxyethoxy)ethoxy)phenyl)piperazin-1-yl)-2-phenylethan-1-one]"
14,7.4 nM,"C[C@@](C(=O)N1CCN(c2ccc(OCCN3CCOCC3)cc2)CC1)(c1ccccc1)n1ncc2c1nc(N)n1nc(-c3ccco3)nc21 [Compound A80a, (S)-2-(5-amino-2-(furan-2-yl)-7H-pyrazolo[4,3-e][1,2,4]triazolo[1,5-c]pyrimidin-7-yl)-1-(4-(4-(2-morpholinoethoxy)phenyl)piperazin-1-yl)-2-phenylpropan-1-one]"
15,0.2 nM,"COCCOc1ccc(N2CCN(C(=O)C(c3ccccc3)n3ncc4c3nc(N)n3nc(-c5ccco5)nc43)CC2C)cc1 (single isomer, unassigned) [Compound A47b]"
16,25 nM,"CC(C(=O)N1CCN(c2ccccc2C(=O)NCC2(O)COC2)CC1)(c1ccccc1)n1ncc2c1nc(N)n1nc(-c3ccco3)nc21 (stereo not drawn) [Compound A100, 2-(4-(2-(5-amino-2-(furan-2-yl)-7H-pyrazolo[4,3-e][1,2,4]triazolo[1,5-c]pyrimidin-7-yl)-2-phenylpropanoyl)piperazin-1-yl)-N-((3-hydroxyoxetan-3-yl)methyl)benzamide]"
17,28.4 nM,"COCCOc1ccc(N2CCN(C(=O)C(C)n3cc4c(nc(N)n5nc(-c6ccco6)nc45)n3)CC2)cc1 (stereo not drawn) [Compound C1, 2-(5-amino-2-(furan-2-yl)-8H-pyrazolo[4,3-e][1,2,4]triazolo[1,5-c]pyrimidin-8-yl)-1-(4-(4-(2-methoxyethoxy)phenyl)piperazin-1-yl)propan-1-one]"
18,2.5 nM,"CN(C)CCOc1ccc(N2CCN(C(=O)C(c3ccccc3)n3ncc4c3nc(N)n3nc(-c5ccco5)nc43)CC2)cc1 (stereo not drawn) [Compound A37, 2-(5-amino-2-(furan-2-yl)-7H-pyrazolo[4,3-e][1,2,4]triazolo[1,5-c]pyrimidin-7-yl)-1-(4-(4-(2-(dimethylamino)ethoxy)phenyl)piperazin-1-yl)-2-phenylethan-1-one]"
19,5.6 nM,"COCCOc1cccc2c1CN(C(=O)C(c1ccccc1)n1ncc3c1nc(N)n1nc(-c4ccco4)nc31)CC2 (stereo not drawn) [Compound B16, 2-(5-amino-2-(furan-2-yl)-7H-pyrazolo[4,3-e][1,2,4]triazolo[1,5-c]pyrimidin-7-yl)-1-(8-(2-methoxyethoxy)-3,4-dihydroisoquinolin-2(1H)-yl)-2-phenylethan-1-one]"
20,111 nM,"CC(C(=O)N1CCc2ccccc2C1)(c1ccccc1)n1ncc2c1nc(N)n1nc(-c3ccco3)nc21 (stereo not drawn) [Compound B18, 2-(5-amino-2-(furan-2-yl)-7H-pyrazolo[4,3-e][1,2,4]triazolo[1,5-c]pyrimidin-7-yl)-1-(3,4-dihydroisoquinolin-2(1H)-yl)-2-phenylpropan-1-one]"
21,8.9 nM,"COCCOc1ccc(N2CCN(C(=O)C(C)(c3ccccc3)n3ncc4c3nc(N)n3nc(-c5ccco5)nc43)CC2)c(F)c1F (stereo not drawn) [Compound A67, 2-(5-amino-2-(furan-2-yl)-7H-pyrazolo[4,3-e][1,2,4]triazolo[1,5-c]pyrimidin-7-yl)-1-(4-(2,3-difluoro-4-(2-methoxyethoxy)phenyl)piperazin-1-yl)-2-phenylpropan-1-one]"
22,2.8 nM,"C[C@](C(=O)N1CCN(c2ccc(OCCN3CCOCC3)cc2)CC1)(c1ccccc1)n1ncc2c1nc(N)n1nc(-c3ccco3)nc21 [Compound A80b, (R)-2-(5-amino-2-(furan-2-yl)-7H-pyrazolo[4,3-e][1,2,4]triazolo[1,5-c]pyrimidin-7-yl)-1-(4-(4-(2-morpholinoethoxy)phenyl)piperazin-1-yl)-2-phenylpropan-1-one]"
23,8.4 nM,"COCCOc1ccc(N2CCN(C(=O)C(C3CC3)n3ncc4c3nc(N)n3nc(-c5ccco5)nc43)CC2)cc1 (stereo not drawn) [Compound A15, 2-(5-amino-2-(furan-2-yl)-7H-pyrazolo[4,3-e][1,2,4]triazolo[1,5-c]pyrimidin-7-yl)-2-cyclopropyl-1-(4-(4-(2-methoxyethoxy)phenyl)piperazin-1-yl)ethan-1-one]"
24,103 nM,"COCCOc1ccc(N2CCN(C(=O)C(C)(c3ccccc3)n3ncc4c3nc(N)n3nc(-c5ccco5)nc43)[C@@H](C)C2)cc1 (stereo partly drawn) [Compound A72, 2-(5-amino-2-(furan-2-yl)-7H-pyrazolo[4,3-e][1,2,4]triazolo[1,5-c]pyrimidin-7-yl)-1-((S)-4-(4-(2-methoxyethoxy)phenyl)-2-methylpiperazin-1-yl)-2-phenylpropan-1-one]"
